This is an account of results in ChEMBL document CHEMBL1828556, “Synthesis, hypnotic properties and molecular modeling studies of 1,2,7,9-tetraaza-spiro[4.5]dec-2-ene-6,8,10-triones” (Eur J Med Chem, 2011).

For series [1], the system named is Mus musculus. The series can be described thus: Potentiation of sodium thiopental-induced hypnotic/sedative activity in Albino mouse assessed as time elapsed between injection of sodium thiopental and loss of righting reflex at 25 mg/kg, ip administered 1 hr prior challenge (Rvb =2.66 +/- 0.23 mins). In kind it is functional. Conditions: route intraperitoneal.

Series [2] relates to Mus musculus. The series can be described thus: Potentiation of sodium thiopental-induced hypnotic/sedative activity in Albino mouse assessed as sleeping time at 25 mg/kg, ip administered 1 hr prior challenge relative to control. In kind it is functional. The settings on record: route intraperitoneal.
Series [3] relates to Mus musculus. Nature of the series: Toxicity in Albino mouse assessed as mortality at 250 mg/kg, ip after 24 hrs. Conditions: in vivo. In kind it is organism-based. Set-up: dose 250 mg/kg, route intraperitoneal.
Series [4] has as its system Mus musculus. Nature of the series: Toxicity in Albino mouse assessed as mortality at 750 mg/kg, ip after 24 hrs. In kind it is organism-based. The settings on record: in vivo. Also noted: dose 750 mg/kg, route intraperitoneal.
Series [5] deals with Mus musculus. The series can be described thus: Toxicity in Albino mouse assessed as toxic symptoms at 500 mg/kg, ip after 24 hrs. In kind it is organism-based. Set-up: dose 500 mg/kg, route intraperitoneal. The settings on record: in vivo.
For series [6], the system named is Mus musculus. Nature of the series: Toxicity in Albino mouse assessed as toxic symptoms at 250 mg/kg, ip after 24 hrs. In kind it is organism-based. Also noted: dose 250 mg/kg, route intraperitoneal. Conditions: in vivo.
Series [7] concerns Mus musculus. Nature of the series: Toxicity in Albino mouse assessed as toxic symptoms at 750 mg/kg, ip after 24 hrs. Also noted: dose 750 mg/kg, route intraperitoneal. In kind it is organism-based. The settings on record: in vivo.
Series [8] deals with Mus musculus. The series can be described thus: Toxicity in Albino mouse assessed as mortality at 500 mg/kg, ip after 24 hrs. Conditions: in vivo. Also noted: dose 500 mg/kg, route intraperitoneal. In kind it is organism-based.

Molecules are shown by their SMILES.

For the molecule `CN1C(=O)N(C)C(=O)C2(C1=O)C(c1cccs1)C(c1ccccc1)=NN2c1ccccc1` (stereo not drawn), the Time in series [1] was 1.79 min. In addition, the Activity in series [2] is reported as -25.8%.

Take `COc1ccc(C2C(c3ccccc3)=NN(c3ccccc3)C23C(=O)N(C)C(=O)N(C)C3=O)cc1` (stereo not drawn): the Time in series [1] worked out at 5.25 min. Moreover, the Activity in series [2] is -20.3%.

As to `CN1C(=O)N(C)C(=O)C2(C1=O)C(c1ccccc1)C(c1ccccc1)=NN2c1cccc(Cl)c1` (stereo not drawn), the Time in series [1] was found to be 1.85 min. Moreover, the Activity in series [2] came to 192%.

On to `CN1C(=O)N(C)C(=O)C2(C1=O)C(c1ccc(N(C)C)cc1)C(c1ccccc1)=NN2c1ccccc1` (stereo not drawn), for which the Time in series [1] is 2.91 min. Further, the Activity result is given as “Non-toxic” in series [3]; “Non-toxic” in series [4]; 299.4% in series [2]; “Non-toxic” in series [5]; “Non-toxic” in series [6]; “Non-toxic” in series [7]. For the same molecule, in series [8], the Activity result is on record as “Non-toxic”.

Turning to `CN1C(=O)N(C)C(=O)C2(C1=O)C(c1ccc(Cl)cc1)C(c1ccccc1)=NN2c1ccccc1` (stereo not drawn), the Time in series [1] stood at 3.47 min. Besides, the Activity in series [2] was determined as 20%.

For `CN1C(=O)N(C)C(=O)C2(C1=O)C(c1ccc(F)cc1)C(c1ccccc1)=NN2c1ccccc1` (stereo not drawn), the Time in series [1] is 2 min. In addition, the Activity result was “Non-toxic” in series [3]; “Non-toxic” in series [4]; 358.6% in series [2]; “Non-toxic” in series [5]; “Non-toxic” in series [6]; “Non-toxic” in series [7]. Besides, the Activity result in series [8] is “Non-toxic”.

As to `Cc1ccc(C2C(c3ccccc3)=NN(c3ccccc3)C23C(=O)N(C)C(=O)N(C)C3=O)o1` (stereo not drawn), the Time in series [1] is recorded as 2.66 min. Also, the Activity entry is reported as “Non-toxic” in series [3]; “Non-toxic” in series [4]; 904% in series [2]; “Non-toxic” in series [5]; “Non-toxic” in series [6]; “Non-toxic” in series [7]. The Activity result in series [8] is listed as “Non-toxic”.

Consider `CN1C(=O)N(C)C(=O)C2(C1=O)C(c1ccccc1)C(c1ccccc1)=NN2c1ccccc1` (stereo not drawn), for which the Time in series [1] stood at 3 min. For the same molecule, in series [2], the Activity is 1.3%.

With `CN1C(=O)N(C)C(=O)C2(C1=O)C(c1ccc(Cl)cc1Cl)C(c1ccccc1)=NN2c1ccccc1` (stereo not drawn), the Time in series [1] was 2.12 min. Moreover, the Activity entry in series [3] was “Non-toxic”; in series [4], “Non-toxic”; in series [2], 501.2%; in series [5] it was “Non-toxic”; in series [6], “Non-toxic”; in series [7], “Non-toxic”. In addition, in series [8], the Activity entry is “Non-toxic”.

As for `CN1C(=O)N(C)C(=O)C2(C1=O)C(c1ccc(Cl)cc1)C(c1ccccc1)=NN2c1cccc(Cl)c1` (stereo not drawn), the Time in series [1] is on record as 2.3 min. For the same molecule, the Activity result in series [3] is “Non-toxic”; in series [4], “Non-toxic”; in series [2], 340.9%; in series [5], “Non-toxic”; in series [6], “Non-toxic”; in series [7], “Non-toxic”. For the same molecule, in series [8], the Activity entry was “Non-toxic”.

Turning to `Cc1ccc(C2C(c3ccccc3)=NN(c3ccccc3)C23C(=O)N(C)C(=O)N(C)C3=O)cc1` (stereo not drawn), the Time in series [1] came out at 2.92 min. Also, the Activity entry in series [3] is “Non-toxic”; in series [4], “Non-toxic”; in series [2], 311.3%; in series [5], “Non-toxic”; in series [6] it was “Non-toxic”; in series [7], “Non-toxic”. Moreover, the Activity result in series [8] is listed as “Non-toxic”.
